Measured values: the supplement of paper PMC9103864

Columns and labels:
[1] = test system: BMSC (primary human bone marrow mesenchymal stromal cells); experiment: drug sensitivity score (DSS); higher = more sensitive
[2] = test system: BMSC (primary human bone marrow mesenchymal stromal cells); experiment: absolute EC50 for viability; higher = less sensitive

Compound | drug sensitivity score [1] | absolute EC50 for viability [2] [nM]
Cc1c2oc3c(C)ccc(C(=O)N[C@@H]4C(=O)N[C@H](C(C)C)C(=O)N5CCC[C@H]5C(=O)N(C)CC(=O)N(C)[C@@H](C(C)C)C(=O)O[C@@H]4C)c3nc-2c(C(=O)N[C@@H]2C(=O)N[C@H](C(C)C)C(=O)N3CCC[C@H]3C(=O)N(C)CC(=O)N(C)[C@@H](C(C)C)C(=O)O[C@@H]2C)c(N)c1=O [Dactinomycin] | 19 | 50.7
COc1cc(N2CCC(N3CCN(C)CC3)CC2)ccc1Nc1ncc(Cl)c(Nc2ccccc2P(C)(C)=O)n1 [Brigatinib] | 2.8 | 944
Cc1cc(-c2ncc(CC(=O)Nc3ccc(-c4cnccn4)cn3)cc2C)ccn1 [NVP-LGK974] | 0.4 | > 10000
CO[C@H]1C[C@@H]2CC[C@@H](C)[C@@](O)(O2)C(=O)C(=O)N2CCCC[C@H]2C(=O)O[C@H]([C@H](C)C[C@@H]2CC[C@@H](OC(=O)C(C)(CO)CO)[C@H](OC)C2)CC(=O)[C@H](C)/C=C(\C)[C@@H](O)[C@@H](OC)C(=O)[C@H](C)C[C@H](C)/C=C/C=C/C=C/1C [Temsirolimus] | 7.4 | > 100
Oc1ncnc2[nH]ncc12 [Allopurinol] | 0 | > 10000
Cn1ncc(Cl)c1-c1cc(C(=O)N[C@H](CN)Cc2ccc(F)c(F)c2)oc1Cl [Uprosertib] | 2.4 | > 10000
CCN1CCN(c2ccc(Nc3cc(N(C)C(=O)Nc4c(Cl)c(OC)cc(OC)c4Cl)ncn3)cc2)CC1 [Infigratinib] | 0 | > 1000
C[C@H](Nc1ncnc2nc[nH]c12)c1cc2cccc(Cl)c2c(=O)n1-c1ccccc1 [Duvelisib] | 0.6 | > 500
COc1cccc2c1C(=O)c1c(O)c3c(c(O)c1C2=O)C[C@@](O)(C(C)=O)C[C@@H]3O[C@H]1C[C@H](N)[C@H](O)[C@H](C)O1 [Daunorubicin] | 5.6 | 356
Cn1cnc2c(F)c(Nc3ccc(Br)cc3F)c(C(=O)NOCCO)cc21 [Binimetinib] | 1.9 | > 1000
COCC1(CO)C(=O)C2CCN1CC2 (configuration not stated) [APR-246] | 0 | > 10000
O=C(Nc1ccc(OC(F)(F)Cl)cc1)c1cnc(N2CC[C@@H](O)C2)c(-c2cc[nH]n2)c1 [Asciminib] | 0 | > 1000
C[C@@H]1C=C2C(=O)O[C@@H]3CC[C@H](C1)[C@]23O [Galiellalactone] | 1.3 | > 25000
Nc1ccccc1NC(=O)c1ccc(CNc2nccc(-c3cccnc3)n2)cc1 [Mocetinostat] | 4.7 | > 10000
O=C(c1ccc(C(=O)N2CCC(N3CCCC3)CC2)c(Nc2ccccc2)c1)N1CCC(N2CCCC2)CC1 [UNC1215] | 0 | > 10000
CN1CCN(C2CCC(n3cc(-c4ccc(Oc5ccccc5)cc4)c4c(N)ncnc43)CC2)CC1 (configuration not stated) | 11.1 | 1000
C[C@]12CC[C@@H]3c4ccc(O)cc4C[C@@H](CCCCCCCCC[S+]([O-])CCCC(F)(F)C(F)(F)F)[C@H]3[C@@H]1CC[C@@H]2O (some centres not stated) [Fulvestrant] | 0 | > 1000
CC1(C)C(C(=O)Nc2ccc(S(=O)(=O)c3ccc(NC(=O)C4C(C)(C)C4(C)C)cc3)cc2)C1(C)C [BRD7116] | 0 | > 10000
CC(C)C[C@H](NC(=O)[C@H](Cc1ccccc1)NC(=O)c1cnccn1)B(O)O [Bortezomib] | 14.5 | 50.7

Compound | drug sensitivity score [1] | absolute EC50 for viability [2] [nM]
Cc1nc(Nc2n[nH]c3c2CN(C(=O)N[C@H](CN(C)C)c2ccccc2)C3(C)C)c2sccc2n1 | 7.4 | 2860
Cc1c(Cn2c(C)nc3c(C(=O)O)cc(N4CCOCC4)cc32)cccc1C(F)(F)F | 0 | > 10000
O=C(Nc1cc(Cl)cc2c1[nH]c1cnccc12)c1cccnc1 [PS-1145] | 0 | > 25000
O=C(O)CCCCC(CCSCc1ccccc1)SCc1ccccc1 (configuration not stated) [CPI-613] | 0 | > 10000
COc1cccc2c1C(=O)c1c(O)c3c(c(O)c1C2=O)C[C@@](O)(/C(CO)=N/NC(=O)CCCCCN1C(=O)C=CC1=O)C[C@@H]3O[C@H]1C[C@H](N)[C@H](O)[C@H](C)O1 [Aldoxorubicin] | 7.3 | 944
CC(C)(O)CC(=O)NCCn1ccc2ncnc(Nc3ccc(Oc4cccc(C(F)(F)F)c4)c(Cl)c3)c21 [TAK-285] | 0.4 | > 2500
Cc1ccc(NS(=O)(=O)c2cccc(C#N)c2)c2[nH]cc(C#N)c12 [E7820] | 0 | > 50000
CCn1c(-c2nonc2N)nc2c(C#CC(C)(C)O)ncc(OC[C@H]3CCCNC3)c21 | 6.3 | > 10000
COCC[n+]1c2c(n(Cc3cnccn3)c1C)C(=O)c1ccccc1C2=O [Sepantronium bromide] | 25.4 | 70.5
CCCCC(=O)OCC(=O)[C@]1(O)Cc2c(O)c3c(c(O)c2[C@@H](O[C@H]2C[C@H](NC(=O)C(F)(F)F)[C@H](O)[C@H](C)O2)C1)C(=O)c1c(OC)cccc1C3=O [Valrubicin] | 10.8 | 489
CC(=O)Nc1cccc(-n2c(=O)n(C3CC3)c(=O)c3c(Nc4ccc(I)cc4F)n(C)c(=O)c(C)c32)c1 [Trametinib] | 2.7 | > 250
O=C(Nc1ccncc1)C(=O)c1cn(Cc2ccc(Cl)cc2)c2ccccc12 [Indibulin] | 0 | > 10000
COc1cc2ncnc(Nc3cccc(Cl)c3F)c2cc1OC(=O)N1CCN(C)C[C@H]1C [AZD3759] | 0 | > 1000
O=c1[nH]c(=O)n([C@H]2C[C@H](O)[C@@H](CO)O2)cc1F [Floxuridine] | 0 | > 10000
COc1cc2c(NC3CCN(C(C)C)CC3)nc(C3CCCCC3)nc2cc1OCCCN1CCCC1 [UNC0638] | 5.4 | 3290
O=C1NC(=O)[C@@H](c2cn3c4c(cccc24)CCC3)[C@@H]1c1c[nH]c2ccccc12 [Tivantinib] | 0 | > 1000
CCN(CC)Cc1ccc2cc(COC(=O)Nc3ccc(C(=O)NO)cc3)ccc2c1 [Givinostat] | 3.6 | > 1000
COc1ccccc1S(=O)(=O)Nc1ccc2c(c1)CN(C)C(=O)N2 [PFI-1] | 1.9 | > 30000
O[C@H]1CC[C@H](Nc2ncc3nc(Nc4c(F)cc(F)cc4F)n([C@H]4CCOC4)c3n2)CC1 [Tanzisertib] | 0.3 | > 10000

Compound | drug sensitivity score [1] | absolute EC50 for viability [2] [nM]
O=C(O)C1(C(=O)O)CCC1.[NH2-].[NH2-].[Pt+2] [Carboplatin] | 2.5 | > 100000
FC(F)c1nc2ccccc2n1-c1nc(N2CCOCC2)nc(N2CCOCC2)n1 [ZSTK474] | 7.2 | > 10000
CC[C@@H]1C(=O)N(C)c2cnc(Nc3ccc(C(=O)NC4CCN(C)CC4)cc3OC)nc2N1C1CCCC1 [BI 2536] | 1.9 | > 1000
C/C(=C\c1csc(C)n1)[C@@H]1C[C@@H]2O[C@]2(C)CCC[C@H](C)[C@H](O)[C@@H](C)C(=O)C(C)(C)[C@@H](O)CC(=O)N1 [Ixabepilone] | 0.5 | > 1000
CCN(CC)CCNC(=O)c1c(C)[nH]c(/C=C2\C(=O)Nc3ccc(-c4csc(-c5ccccc5)n4)cc32)c1C [Amcasertib] | 5.9 | 2780
NC(=O)c1cccc(-c2cccc(OC(=O)NC3CCCCC3)c2)c1 [URB597] | 0 | > 1000
O=C(CCCCCCC(=O)Nc1ccc([C@H]2O[C@@H](CSc3nc(-c4ccccc4)c(-c4ccccc4)o3)C[C@@H](c3ccc(CO)cc3)O2)cc1)NO [Tubacin] | 0 | > 10000
COc1c(OCCCN2CCOCC2)ccc2c3n(c(=NC(=O)c4cnc(N)nc4)nc12)CCN3 [Copanlisib] | 13 | 126
CC[C@]12C=CCN3CC[C@@]4(c5cc([C@@]6(C(=O)OC)C[C@@H]7C[C@@H](C(C)(F)F)CN(Cc8c6[nH]c6ccccc86)C7)c(OC)cc5N(C)[C@H]4[C@@](O)(C(=O)OC)[C@@H]1OC(C)=O)[C@@H]32 [Vinflunine] | 2.8 | > 1000
CCc1c(C(=O)C(N)=O)c2c(OCC(=O)O)cccc2n1Cc1ccccc1 [Varespladib] | 0 | > 10000
Cc1cc(F)c(C(=O)Nc2cccc(-c3nncn3C(C)C)n2)cc1-n1cnc(C2CC2)c1 [Selonsertib] | 0 | > 1000
Cc1cc(C(C)Nc2ccccc2)c2nc(N3CCOCC3)cc(=O)n2c1 (configuration not stated) [TGX-221] | 0.3 | > 10000
CNC(=O)c1ccc2cc([C@@]3(O)CCn4cncc43)ccc2c1 [Orteronel] | 0 | > 10000
COc1cc2ncnc(Nc3ccc(F)c(Cl)c3)c2cc1NC(=O)/C=C/CN1CCCCC1 [Dacomitinib] | 2.2 | > 1000
Cn1cc(C2=C(c3cn(C4CCN(Cc5ccccn5)CC4)c4ccccc34)C(=O)NC2=O)c2ccccc21 [Enzastaurin] | 0 | > 10000
Nc1ncnc2c1c(COc1cccc(Cl)c1)nn2C1CCOCC1 | 0 | > 10000
Cc1ccc(=O)n(-c2ccccc2)c1 [Pirfenidone] | 0 | > 10000
O=C(CCNC(=O)c1ccc(OC(F)(F)F)cc1)N[C@@H]1CCCc2ccccc21 [ML390] | 0.3 | > 50000
